Reference: ChEMBL document CHEMBL1201862, “PubChem BioAssay data set” (2004)
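48-hour exposure; five concentrations; linearly interpolated endpoints. GI50 marks 50% less growth.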 Active and inactive are the calls of the source. No stated cut-off is given here; in the data, active = GI50 up to about 1.1 µM and inactive = higher.

What was measured:
Test in all cases: DTP human tumour cell line panel, 48 h
[1] = test system: 786-0
[2] = test system: A498
[3] = test system: A549
[4] = test system: ACHN
[5] = test system: CAKI-1
[6] = test system: CCRF-CEM
[7] = test system: COLO 205
[8] = test system: DLD-1
[9] = test system: DMS-114
[10] = test system: DMS-273
[11] = test system: EKVX
[12] = test system: HCC 2998
[13] = test system: HCT-116
[14] = test system: HCT-15
[15] = test system: HL-60
[16] = test system: HOP-18
[17] = test system: HOP-62
[18] = test system: HOP-92
[19] = test system: HT-29
[20] = test system: IGROV-1
[21] = test system: K562
[22] = test system: KM-20L2
[23] = test system: KM12
[24] = test system: LOX IMVI
[25] = test system: LXFL 529
[26] = test system: M14
[27] = test system: MOLT-4
[28] = test system: Malme-3M
[29] = test system: NCI-H226
[30] = test system: NCI-H23
[31] = test system: NCI-H460
[32] = test system: OVCAR-3
[33] = test system: OVCAR-4
[34] = test system: OVCAR-5
[35] = test system: OVCAR-8
[36] = test system: RPMI-8226
[37] = test system: RXF 631
[38] = test system: SF-268
[39] = test system: SF-295
[40] = test system: SF-539
[41] = test system: SK-MEL-28
[42] = test system: SK-MEL-2
[43] = test system: SK-MEL-5
[44] = test system: SK-OV-3
[45] = test system: SN12C
[46] = test system: SNB-19
[47] = test system: SNB-75
[48] = test system: SR
[49] = test system: SW-620
[50] = test system: TK-10
[51] = test system: U-251
[52] = test system: UACC-257
[53] = test system: UACC-62
[54] = test system: UO-31
[55] = test system: M19-MEL
[56] = test system: NCI-H522
[57] = test system: RXF 393
[58] = test system: SNB-78
[59] = test system: XF498
[60] = test system: BT-549
[61] = test system: DU-145
[62] = test system: Hs-578T
[63] = test system: MCF7
[64] = test system: MDA-MB-231
[65] = test system: MDA-MB-435
[66] = test system: MDA-N
[67] = test system: NCI/ADR-RES
[68] = test system: PC-3
[69] = test system: T47D

Cc1ccc(C)c(N2C(=O)C(=O)C(c3nc4ccccc4s3)/C(=N\c3cccc4c(=O)[nH][nH]c(=O)c34)C2=O)c1 (stereo not given)
GI50 [1]: > 100 µM (inactive) | GI50 [2]: > 100 µM (inactive) | GI50 [3]: > 100 µM (inactive) | GI50 [4]: > 100 µM (inactive) | GI50 [5]: > 100 µM (inactive) | GI50 [6]: > 100 µM (inactive) | GI50 [7]: 38.2 µM (inactive) | GI50 [8]: > 100 µM (inactive) | GI50 [9]: > 100 µM (inactive) | GI50 [10]: > 100 µM (inactive) | GI50 [11]: > 100 µM (inactive) | GI50 [12]: > 100 µM (inactive) | GI50 [13]: > 100 µM (inactive) | GI50 [14]: > 100 µM | GI50 [15]: > 100 µM (inactive) | GI50 [16]: > 100 µM (inactive) | GI50 [17]: > 100 µM (inactive) | GI50 [18]: > 100 µM (inactive) | GI50 [19]: > 100 µM (inactive) | GI50 [20]: > 100 µM (inactive) | GI50 [21]: > 100 µM (inactive) | GI50 [22]: > 100 µM (inactive) | GI50 [23]: > 100 µM (inactive) | GI50 [24]: > 100 µM (inactive) | GI50 [25]: > 100 µM (inactive) | GI50 [26]: > 100 µM (inactive) | GI50 [27]: > 100 µM (inactive) | GI50 [28]: > 100 µM (inactive) | GI50 [29]: > 100 µM (inactive) | GI50 [30]: > 100 µM (inactive) | GI50 [31]: > 100 µM (inactive) | GI50 [32]: > 100 µM (inactive) | GI50 [33]: 88.5 µM (inactive) | GI50 [34]: > 100 µM (inactive) | GI50 [35]: > 100 µM (inactive) | GI50 [36]: > 100 µM (inactive) | GI50 [37]: > 100 µM (inactive) | GI50 [38]: > 100 µM (inactive) | GI50 [39]: > 100 µM (inactive) | GI50 [40]: 91.8 µM (inactive) | GI50 [41]: > 100 µM (inactive) | GI50 [42]: > 100 µM (inactive) | GI50 [43]: > 100 µM (inactive) | GI50 [44]: > 100 µM (inactive) | GI50 [45]: > 100 µM (inactive) | GI50 [46]: > 100 µM (inactive) | GI50 [47]: 97.9 µM (inactive) | GI50 [48]: > 100 µM (inactive) | GI50 [49]: > 100 µM (inactive) | GI50 [50]: > 100 µM (inactive) | GI50 [51]: > 100 µM (inactive) | GI50 [52]: > 100 µM (inactive) | GI50 [53]: > 100 µM (inactive) | GI50 [54]: > 100 µM (inactive)

CCCCCC(C[N+]1(C)CCOCC1)C(=O)/C=C/c1ccccc1 (stereo not given)
GI50 [1]: 2 µM (inactive) | GI50 [2]: 15.1 µM (inactive) | GI50 [3]: 22.9 µM (inactive) | GI50 [4]: 23.6 µM (inactive) | GI50 [5]: 16.9 µM (inactive) | GI50 [6]: 2.71 µM (inactive) | GI50 [7]: 15.7 µM (inactive) | GI50 [8]: 6.25 µM (inactive) | GI50 [9]: 9.62 µM (inactive) | GI50 [10]: 2.91 µM (inactive) | GI50 [11]: 19.9 µM (inactive) | GI50 [12]: 18.2 µM (inactive) | GI50 [13]: 3.41 µM (inactive) | GI50 [14]: 8.34 µM | GI50 [15]: 6.89 µM (inactive) | GI50 [16]: 14.8 µM (inactive) | GI50 [17]: 30 µM (inactive) | GI50 [18]: 18.7 µM (inactive) | GI50 [19]: 5.31 µM (inactive) | GI50 [20]: 19.4 µM (inactive) | GI50 [21]: 3.34 µM (inactive) | GI50 [22]: 15.9 µM (inactive) | GI50 [23]: 2.8 µM (inactive) | GI50 [24]: 1.76 µM (inactive) | GI50 [25]: 3.18 µM (inactive) | GI50 [26]: 11.1 µM (inactive) | GI50 [55]: 14.6 µM (inactive) | GI50 [27]: 3.03 µM (inactive) | GI50 [28]: 16.9 µM (inactive) | GI50 [29]: 10.8 µM (inactive) | GI50 [30]: 14.7 µM (inactive) | GI50 [31]: 16.4 µM (inactive) | GI50 [56]: 3.03 µM (inactive) | GI50 [32]: 14.4 µM (inactive) | GI50 [33]: 11.2 µM (inactive) | GI50 [34]: 17.4 µM (inactive) | GI50 [35]: 12.7 µM (inactive) | GI50 [36]: 1.54 µM (inactive) | GI50 [57]: 14.4 µM (inactive) | GI50 [38]: 9.64 µM (inactive) | GI50 [39]: 7.74 µM (inactive) | GI50 [40]: 9.79 µM (inactive) | GI50 [41]: 16.2 µM (inactive) | GI50 [42]: 15.2 µM (inactive) | GI50 [43]: 13.4 µM (inactive) | GI50 [44]: 46.5 µM (inactive) | GI50 [45]: 13.5 µM (inactive) | GI50 [46]: 12 µM (inactive) | GI50 [47]: 7.33 µM (inactive) | GI50 [58]: 14.1 µM (inactive) | GI50 [48]: 2.91 µM (inactive) | GI50 [49]: 2.62 µM (inactive) | GI50 [50]: 20.3 µM (inactive) | GI50 [51]: 7.67 µM (inactive) | GI50 [52]: 13.4 µM (inactive) | GI50 [53]: 9.59 µM (inactive) | GI50 [54]: 16.1 µM (inactive) | GI50 [59]: 14.4 µM (inactive)

C=C(CN(C)C)C(=O)c1ccc(OC)cc1
GI50 [1]: 1.72 µM (inactive) | GI50 [2]: 9.79 µM (inactive) | GI50 [3]: 18.2 µM (inactive) | GI50 [4]: 1.12 µM (active) | GI50 [60]: 6.56 µM (inactive) | GI50 [5]: 1.5 µM (inactive) | GI50 [6]: 0.186 µM (active) | GI50 [7]: 0.326 µM (active) | GI50 [8]: 0.427 µM (active) | GI50 [9]: 3.7 µM (inactive) | GI50 [10]: 3.8 µM (inactive) | GI50 [61]: 4.97 µM (inactive) | GI50 [11]: 18.7 µM (inactive) | GI50 [12]: 14.2 µM (inactive) | GI50 [13]: 1.58 µM (inactive) | GI50 [14]: 1.76 µM | GI50 [15]: 0.198 µM (active) | GI50 [16]: 3.78 µM (inactive) | GI50 [17]: 21.7 µM (inactive) | GI50 [18]: 1.32 µM (inactive) | GI50 [19]: 5.71 µM (inactive) | GI50 [62]: 15.5 µM (inactive) | GI50 [20]: 10.7 µM (inactive) | GI50 [21]: 0.622 µM (active) | GI50 [22]: 5.13 µM (inactive) | GI50 [23]: 14.5 µM (inactive) | GI50 [24]: 4.49 µM (inactive) | GI50 [25]: 1.69 µM (inactive) | GI50 [26]: 2.5 µM (inactive) | GI50 [55]: 2.07 µM (inactive) | GI50 [63]: 2.77 µM (inactive) | GI50 [64]: 11.6 µM (inactive) | GI50 [65]: 10.5 µM (inactive) | GI50 [66]: 7.46 µM (inactive) | GI50 [27]: 0.52 µM (active) | GI50 [28]: 1.48 µM (inactive) | GI50 [29]: 6.76 µM (inactive) | GI50 [30]: 7.4 µM (inactive) | GI50 [31]: 21.8 µM (inactive) | GI50 [56]: 0.267 µM (active) | GI50 [67]: 8.32 µM (inactive) | GI50 [32]: 2.77 µM (inactive) | GI50 [33]: 5.26 µM (inactive) | GI50 [34]: 13.6 µM (inactive) | GI50 [35]: 1.07 µM (active) | GI50 [68]: 15.2 µM (inactive) | GI50 [36]: 2.11 µM (inactive) | GI50 [57]: 10 µM (inactive) | GI50 [38]: 6.05 µM (inactive) | GI50 [39]: 28.5 µM (inactive) | GI50 [40]: 4.1 µM (inactive) | GI50 [41]: 3.49 µM (inactive) | GI50 [42]: 4.61 µM (inactive) | GI50 [43]: 8.24 µM (inactive) | GI50 [44]: 24.7 µM (inactive) | GI50 [45]: 2.48 µM (inactive) | GI50 [46]: 20 µM (inactive) | GI50 [47]: 15.5 µM (inactive) | GI50 [58]: 2.36 µM (inactive) | GI50 [48]: 1.05 µM (active) | GI50 [49]: 0.771 µM (active) | GI50 [69]: 0.881 µM (active) | GI50 [50]: 2.24 µM (inactive) | GI50 [51]: 10.3 µM (inactive) | GI50 [52]: 5.31 µM (inactive) | GI50 [53]: 9.33 µM (inactive) | GI50 [54]: 2.55 µM (inactive) | GI50 [59]: 1.93 µM (inactive)
